PubChem BioAssay AID2060616 (Molecular Pharmacology Branch, DTP, NCI, 2025)
Several values for one entry are separate records, joined by “and”; a condition that tells them apart may be missing. Equal entries are not always repeated.

Tested on: 377384-186-R-J1-PDC complex spheroid viability
Experiment: Anticancer human tumor 377384-186-R-J1-PDC patient-derived pancreatic carcinoma cell line growth inhibition [CLK]
Details: for viability, T/C: stronger effect = lower value
From the text: A high-throughput screen of multi-cell type tumor spheroids was designed to identify active combinations of […] and targeted small molecules. Complex spheroids include a stromal component modeled by human endothelial cells (HUVEC) and fibroblasts modeled by human mesenchymal stem cells (MSCs). The concentration ranges selected for each drug and investigational agent were based upon clinically achievable concentrations if the clinical Cmax of the agent was known.
Compounds. The drugs and investigational agents: cirtuvivint (SM08502; NSC835563), CC-671 (NSC850746), vemurafenib (NSC761431), tapotoclax (NSC804041), sotorasib (NSC818433), adagrasib (NSC831453), MRTX-1133 (NSC836407), BAY2416964 (NSC825713), copanlisib (NSC816437), inavolisib (NSC800729), abemaciclib (NSC768073), osimertinib (NSC779217), entinostat (NSC756642), eltanexor (KPT-8602, NSC794443), venetoclax (NSC766270), ceralasertib (NSC777638), bortezomib (NSC756655), olaparib (NSC753686), talazoparib (NSC767125), alisertib (NSC759677), peposertib (NSC802822), gemcitabine (NSC613327), 5-fluorouracil (NSC19893), SN-38 (NSC673596), oxaliplatin (NSC266046), paclitaxel (NSC125973), and doxorubicin (NSC123127), were obtained from the National Cancer Institute (NCI) Developmental Therapeutics Program Chemical Repository. The FDA-approved anticancer drug set is available from the Developmental Therapeutics Program at https://dtp.cancer.gov/organization/dscb/obtaining/available plates.htm. […] The stock solutions were prepared in dimethyl sulfoxide (DMSO, Sigma-Aldrich, St. Louis, MO, cat. D2650), except for the platinum complexes which were prepared in saline (Quality Biological, Gaithersburg, MD, cat. 114-055-101), at 800-fold the tested concentration and stored at -70 degrees C prior to their use. All drugs and investigational agents were tested over a range starting from a high concentration at or near the clinical Cmax and decreasing in half-log increments. If the clinical Cmax for an agent had not been determined, the highest concentration tested was 10 microM.
Cell Culture. All cells were maintained in an incubator at 37 degrees C and 5% CO2 with 95% humidity. The PDC lines were cultured according to standard operating procedures established by the NCI PDMR. Briefly, all PDCs were thawed and cultured in Matrigel-coated flasks prepared with a working solution of 1X Ham's F-12 nutrient mix, without supplementation (Invitrogen, Waltham, MA, cat. 11765054), 100 U/mL penicillin-streptomycin (Invitrogen, cat. 15140122), and 2.5% Matrigel (Corning Inc., Corning, NY, cat. 354248) for the first three passages. The 947758-054-R-J2-PDC line was cultured in 6B/Colon 1A media, which includes advanced DMEM/F-12 (Thermo Fisher Scientific, cat. 12634028), 10 mM HEPES (Thermo Fisher Scientific, cat. 15630080), 1X GlutaMAX supplement (Thermo Fisher Scientific, cat. 35050061), 0.1 mg/mL primocin (InvivoGen, cat. ant-pm-2), 10% defined fetal bovine serum, heat inactivated (HyClone Laboratories Inc., cat. SH30070.03HI), 1.25 mM N-Acetyl-L-cysteine (Sigma-Aldrich, cat. A9165), 10 mM nicotinamide (Sigma-Aldrich, cat. N0636), 1X B-27 supplement (Thermo Fisher Scientific, cat. 17504044), 1X N-2 supplement (Thermo Fisher Scientific, cat. 17502048), and 10 microM Y-27632 dihydrochloride (Tocris Bioscience, cat. 1254). The 876862-298-R-J1-PDC was cultured in 6E media, which includes all 6B/Colon 1A media components plus 50% L-WRN conditioned media (ATCC, cat. CRL-3276), 50 ng/mL recombinant human EGF recombinant protein (hEGF; Thermo Fisher Scientific, cat. PHG0311), 10 ng/mL recombinant human fibroblast growth factor 10 (hGFG-10; PeproTech, cat. 100-26), 1 ng/mL recombinant human fibroblast growth factor 2 (hFGF-2; PeproTech, cat. 100-18B), and 1 µM prostaglandin E2 (PGE2; Tocris, cat. 2296). The 227483-062-R1-J1-PDC line was cultured in Panc media, containing all 6E components except hFGF-2, with the addition of 500 nM SB-431542 (Selleckchem, cat. S1067) and 10 nM gastrin (Tocris, cat. 3006). […]
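Further: spheroids exposed to agents for 7 days before reading.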
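Wherever viability, T/C is given: luminescence signal used as a stand-in for viable cells.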

| SMILES | IC50 (curve of compound) | viability, T/C (compound 0.0316 µM) | viability, T/C (compound 0.1 µM) | viability, T/C (compound 0.316 µM) | viability, T/C (compound 1 µM) | viability, T/C (compound 3.16 µM) | viability, T/C (compound 10 µM) | other results |
| --- | --- | --- | --- | --- | --- | --- | --- | --- |
| C=C(F)C(=O)N1CCN(c2nc(OCC3CCCN3C)nc3c2CCN(c2cccc4cccc(Cl)c24)C3)CC1CC#N (configuration not stated) | 1670 nM and 1730 nM | 88.4% and 94.1% | 97.7% and 89.9% | 86.1% and 91.8% | 73.6% and 70.8% | 21.3% and 26.5% | 0.31% and 0.54% | – |
| C=CC(=O)Nc1cc(Nc2nccc(-c3cn(C)c4ccccc34)n2)c(OC)cc1N(C)CCN(C)C | > 300 nM | – | – | – | – | – | – | viability, T/C (compound 0.000949 µM): 104% and 105%; viability, T/C (compound 0.003 µM): 84.7% and 99.9%; viability, T/C (compound 0.00949 µM): 85.3% and 108%; viability, T/C (compound 0.03 µM): 85.4% and 97.6%; viability, T/C (compound 0.0949 µM): 78% and 77.1%; viability, T/C (compound 0.3 µM): 50% and 62% |
| CC(C)CC(NC(=O)C(Cc1ccccc1)NC(=O)c1cnccn1)B(O)O (configuration not stated) | 1.43 nM and 1.26 nM | – | – | – | – | – | – | viability, T/C (compound 0.000949 µM): 76.6% and 65.6%; viability, T/C (compound 0.003 µM): 1.85% and 2.08%; viability, T/C (compound 0.00949 µM): 0.32% and 0.23%; viability, T/C (compound 0.03 µM): 0.26% and 0.38%; viability, T/C (compound 0.0949 µM): 0.18% and 0.14%; viability, T/C (compound 0.3 µM): 0.78% and 0.14% |
| CC(Nc1ccc2c(c1)OCCn1cc(N3C(=O)OCC3C(F)F)nc1-2)C(N)=O (configuration not stated) | – | 86.6% and 85.8% | 90.3% and 69.1% | 59.9% and 53% | 56.3% and 54% | 49.6% and 35.9% | 43.6% and 36.5% | – |
| CC1(C)CCC(CN2CCN(c3ccc(C(=O)NS(=O)(=O)c4ccc(NCC5CCOCC5)c([N+](=O)[O-])c4)c(Oc4cnc5[nH]ccc5c4)c3)CC2)=C(c2ccc(Cl)cc2)C1 | 5200 nM and > 10000 nM | 83.6% and 106% | 86.1% and 92.5% | 92.9% and 90.5% | 99% and 97% | 82.7% and 83.9% | – | – |
| CC1COCCN1c1cc(C2(S(C)(=N)=O)CC2)nc(-c2ccnc3[nH]ccc23)n1 (configuration not stated) | 2660 nM and 2050 nM | 85.7% and 90.6% | 108% and 109% | 83.9% and 91.1% | 82.9% and 74.7% | 44% and 35.3% | 17.6% and 14.9% | – |
| CCCS(=O)(=O)Nc1ccc(F)c(C(=O)c2c[nH]c3ncc(-c4ccc(Cl)cc4)cc23)c1F | > 10000 nM | 94.9% and 92.5% | 86% and 102% | 120% and 114% | 126% and 124% | 114% and 105% | 59.8% and 57.9% | – |
| CCN1CCN(Cc2ccc(Nc3ncc(F)c(-c4cc(F)c5nc(C)n(C(C)C)c5c4)n3)nc2)CC1 | 245 nM and 335 nM | 74% and 73.8% | 61% and 58.6% | 45.6% and 50.9% | 39.5% and 40.4% | – | – | viability, T/C (compound 0.00316 µM): 84.8% and 87.7%; viability, T/C (compound 0.01 µM): 74.9% and 74.1% |
| CN1CCN(c2cc(C(=O)Nc3cc4cc(-c5cnn(C)c5)ccc4cn3)ccn2)CC1 | – | 102% [middle of 12 runs] | 103% [middle of 12 runs] | 25.7% [middle of 12 runs] | 1.33% [middle of 12 runs] | 0.96% [middle of 11 runs] | 0.49% [middle of 11 runs] | IC50 (compound alone, run of 07/31/2023): 220 nM [middle of 9 runs] |
| CNC(=O)c1ccc(Nc2nc(OC3CCCC3)c3c(-c4ccc5nc(C)oc5c4)c[nH]c3n2)c(OC)c1 | – | 102% [middle of 12 runs] | 57.2% [middle of 12 runs] | 20.9% [middle of 12 runs] | 20.4% [middle of 12 runs] | 21% [middle of 12 runs] | 21.6% [middle of 12 runs] | IC50 (compound alone, run of 08/01/2023): 130 nM [middle of 11 runs] |
| COC1C=CCC(C)C(C)S(=O)(=O)NC(=O)c2ccc3c(c2)N(CC2CCC21)CC1(CCCc2cc(Cl)ccc21)CO3 (configuration not stated) | 4410 nM and 3370 nM | 88.4% and 110% | 101% and 94.2% | 82% and 79% | 96.1% and 69.6% | 65.8% and 61.7% | 11.2% and 20.1% | – |
| O=c1[nH]cc(F)c(=O)[nH]1 | 2810 nM and 3050 nM | 88.5% and 94.6% | 82.7% and 110% | 93.3% and 88.5% | 68.9% and 68.5% | 50.5% and 51.5% | 45.1% and 41.7% | – |

Further lines, with some results ahead:

| IC50 (curve of compound) | SMILES | viability, T/C (compound 0.0316 µM) | viability, T/C (compound 0.1 µM) | viability, T/C (compound 0.316 µM) | viability, T/C (compound 1 µM) | viability, T/C (compound 3.16 µM) | viability, T/C (compound 10 µM) | other results |
| --- | --- | --- | --- | --- | --- | --- | --- | --- |
| < 31.6 nM | C#Cc1c(F)ccc2cc(O)cc(-c3ncc4c(N5CC6CCC(C5)N6)nc(OCC56CCCN5CC(F)C6)nc4c3F)c12 (configuration not stated) | 21.7% and 21.4% | 9.43% and 10.6% | 5.31% and 3.97% | 4.69% and 4.41% | 2.25% and 2.02% | 1.85% and 1.77% | – |
| > 10000 nM | C=CC(=O)N1CCN(c2nc(=O)n(-c3c(C)ccnc3C(C)C)c3nc(-c4c(O)cccc4F)c(F)cc23)C(C)C1 (configuration not stated) | 108% and 87.8% | 83.9% and 127% | 100% and 101% | 119% and 105% | 110% and 117% | 84.3% and 90.5% | – |
| 7290 nM and 8480 nM | CC(CO)NC(=O)c1cc(-c2ccc(Cl)cc2)nn(-c2cnn(C)c2)c1=O (configuration not stated) | 94.9% and 112% | 101% and 85.5% | 105% and 103% | 102% and 82.1% | 77.7% and 70.1% | 39.5% and 45.9% | – |
| < 3.16 nM | CCc1c2c(nc3ccc(O)cc13)-c1cc3c(c(=O)n1C2)COC(=O)[C@]3(O)CC | 6.41% and 5.33% | 3.96% and 2.67% | 1.37% and 1.52% | 0.82% and 0.63% | – | – | viability, T/C (compound 0.00316 µM): 30% and 30.1%; viability, T/C (compound 0.01 µM): 17.2% and 14.6% |
| 34.4 nM and 28.3 nM | COc1c(OCCCN2CCOCC2)ccc2c3n(c(=NC(=O)c4cnc(N)nc4)nc12)CCN3 | 50% and 52.3% | 34.4% and 30.3% | 22.4% and 22.7% | 14.3% and 13.8% | – | – | viability, T/C (compound 0.00316 µM): 89.6% and 77.6%; viability, T/C (compound 0.01 µM): 72.4% and 61.6% |
| 30.7 nM and 33.4 nM | Cn1ncnc1[C@H]1c2n[nH]c(=O)c3cc(F)cc(c23)N[C@@H]1c1ccc(F)cc1 | 53.4% and 47.6% | 41.8% and 43.1% | – | – | – | – | viability, T/C (compound 0.000316 µM): 86.8% and 87.2%; viability, T/C (compound 0.001 µM): 73.7% and 74.4%; viability, T/C (compound 0.00316 µM): 62.4% and 66.9%; viability, T/C (compound 0.01 µM): 57.6% and 62.5% |
| 76 nM and 57.4 nM | NC(=O)C(=Cn1cnc(-c2cc(C(F)(F)F)cc(C(F)(F)F)c2)n1)c1cncnc1 | – | – | – | – | – | – | viability, T/C (compound 0.00949 µM): 78.2% and 92.5%; viability, T/C (compound 0.03 µM): 70.7% and 66.7%; viability, T/C (compound 0.0949 µM): 41.7% and 36.3%; viability, T/C (compound 0.3 µM): 27% and 18.9%; viability, T/C (compound 0.949 µM): 7.58% and 5.02%; viability, T/C (compound 3 µM): 3.05% and 2.18% |
| 589 nM and 452 nM | Nc1ccccc1NC(=O)c1ccc(CNC(=O)OCc2cccnc2)cc1 | 85.8% and 79.5% | 85.5% and 77.1% | 65.3% and 57.9% | 35.8% and 30.4% | 13.3% and 12.8% | 2.14% and 1.31% | – |
| < 31.6 nM | Nc1ccn(C2OC(CO)C(O)C2(F)F)c(=O)n1 (configuration not stated) | 10.8% and 6.86% | 4.28% and 3.83% | 5.62% and 2.98% | 2.41% and 2.75% | 3.34% and 2.18% | 2.14% and 1.73% | – |
| 7100 nM and 3220 nM | O=C(c1cc(Cc2n[nH]c(=O)c3ccccc23)ccc1F)N1CCN(C(=O)C2CC2)CC1 | 75.9% and 81.2% | 78.6% and 74% | 73.8% and 82.2% | 74.3% and 63.9% | 65.9% and 51.8% | 43.2% and 39% | – |
